Experimental data taken from patent publication US6579892B1, “Triazole compounds with dopamine-D3-receptor affinity” (Abbott Laboratories, priority 1999, dated 2003).
Where a name gives a salt, the structure may show the parent alone.

Assays:
Cloned human D3-receptor = biological target: T1, Cloned human D3-receptor (Homo sapiens, UniProt P35462); assay: D3 binding test (125iodosulpiride displacement); details: negative logarithm of Ki (D3) [M]
T1 construct: host or cells: CCL 1,3 mouse fibroblasts
Procedure: Cloned human D3-receptor-expressing CCL 1,3 mouse fibroblasts, obtainable from Res. Biochemicals Internat. One Strathmore Rd., Natick, Mass. 01760-2418 USA, were used for the binding studies.
The D3-expressing cells were multiplied in RPMI-1640 containing 10% fetal calf serum (GIBCO No. 041-32400 N); 100 U of penicillin/ml and 0.2% streptomycin (GIBO BRL, Gaithersburg, Md., USA). After 48 h, the cells were washed with PBS and incubated for 5 min with 0.05% trypsin-containing PBS. After that, the mixture was neutralized with medium and the cells were collected by centrifuging at 300 g. In order to lyse the cells, the pellet was washed briefly with lysis buffer (5 mM Tris-HCl, pH 7.4, containing 10% glycerol) and after that incubated, at 4° C. for 30 min, at a concentration of 10^7 cells/ml of lysis buffer. The cells were centrifuged at 200 g for 10 min and the pellet was stored in liquid nitrogen.
For the D3-receptor binding test, the membranes were suspended in incubation buffer (50 mM Tris-HCl, pH 7.4, containing 120 mM NaCl, 5 mM KCl, 2 mM CaCl2, 2 mM MgCl2, 10 μM quinolinol, 0.1% ascorbic acid and 0.1% BSA), at a concentration of approx. 10^6 cells/250 μl of test mixture, and incubated at 30° C. […] 0.1 nM ^125iodosulpiride in the presence and absence of the test substance. The nonspecific binding was determined using 10^−6 M spiperone.
After 60 min, the free radioligand and the bound radioligand were separated by filtering through GF/B glass fiber filters (Whatman, England) on a Skatron cell harvester (Skatron, Lier, Norway), and the filters were washed with ice-cold Tris-HCl buffer, pH-7.4. The radioactivity which had collected on the filters was quantified using a Packard 2200 CA liquid scintillation counter.
The Ki values were determined by means of nonlinear regression analysis using the LIGAND program.

[1] = biological target: T2, human dopamine D2A receptors (Homo sapiens, UniProt P14416); assay: D2 binding test (low affinity state, 125I-spiperone); details: ratio Ki(D2)/Ki(D3)
T2 construct: expressed in transfected cells; host or cells: HEK-293
Procedure: All the media contained 100 units of penicillin […] and 100 μg/ml of streptomycin/ml. The cells were maintained at 37° C. in a moist atmosphere containing 5% CO2.
The cells were prepared for the binding studies by trypsinizing them (0.05% solution of trypsin) at room temperature for 3-5 minutes. After that, the cells were centrifuged at 250 g for 10 minutes and treated with lysis buffer (5 mM Tris-HCl, 10% glycerol, pH 7.4) at 4° C. for 30 minutes. After centrifuging at 250 g for 10 minutes, the residue was stored at −20° C. until used.
Low affinity state dopamine D2 receptor using ^125I-spiperone (81 TBq/mmol, Du Pont de Nemours, Dreieich)
The test mixtures (1 ml) consisted of 1×10^5 cells in incubation buffer (50 mM Tris, 120 mM NaCl, 5 mM KCl, 2 mM MgCl2 and 2 mM CaCl2, pH 7.4 with HCl) and […] ^125I-spiperone (total binding) or additionally 1 μM haloperidol (nonspecific binding) or test substance.
After the test mixtures had been incubated at 25° C. for 60 minutes, they were filtered through GM/B glass filters (Whatman, England) on a Skatron cell harvester (from Zinsser, Frankfurt), and the filters were washed with ice-cold 50 mM Tris-HCl buffer, pH 7.4. The radioactivity which had collected on the filters was quantified using a Packard 2200 CA liquid scintillation counter.
The results were evaluated as described in a).
The Ki values were determined by way of nonlinear regression analysis using the LIGAND program or by converting the IC50 values using the Cheng and Prusoff formula.

T1 sequence (P35462 whole entry): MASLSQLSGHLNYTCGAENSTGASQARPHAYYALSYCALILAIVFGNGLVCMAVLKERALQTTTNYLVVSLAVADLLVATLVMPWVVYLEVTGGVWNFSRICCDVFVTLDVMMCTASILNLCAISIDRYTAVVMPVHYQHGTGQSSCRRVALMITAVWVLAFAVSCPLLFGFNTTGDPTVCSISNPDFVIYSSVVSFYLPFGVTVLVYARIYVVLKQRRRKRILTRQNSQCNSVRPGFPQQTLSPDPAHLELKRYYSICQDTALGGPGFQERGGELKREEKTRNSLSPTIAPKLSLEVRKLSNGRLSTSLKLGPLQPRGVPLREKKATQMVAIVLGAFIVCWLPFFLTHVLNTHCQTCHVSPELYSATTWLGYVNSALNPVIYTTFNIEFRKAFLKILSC
T2 sequence (P14416 whole entry): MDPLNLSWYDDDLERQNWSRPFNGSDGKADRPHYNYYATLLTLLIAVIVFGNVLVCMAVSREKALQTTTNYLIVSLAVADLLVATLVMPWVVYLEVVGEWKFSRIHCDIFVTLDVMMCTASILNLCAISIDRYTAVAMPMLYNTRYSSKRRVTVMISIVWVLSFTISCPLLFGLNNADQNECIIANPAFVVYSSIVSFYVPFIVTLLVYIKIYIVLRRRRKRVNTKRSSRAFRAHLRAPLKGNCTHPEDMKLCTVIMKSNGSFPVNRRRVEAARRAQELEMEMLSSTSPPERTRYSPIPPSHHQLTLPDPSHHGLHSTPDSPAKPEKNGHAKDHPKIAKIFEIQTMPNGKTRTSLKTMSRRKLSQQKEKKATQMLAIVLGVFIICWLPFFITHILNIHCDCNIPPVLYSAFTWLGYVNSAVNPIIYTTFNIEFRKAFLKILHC

Row | Compound | melting point | Selectivity (Ki(D2)/Ki(D3)) [1] | other results
1 | Cl.Cn1c(SCCCNCC2CCc3cc(Br)ccc3C2)nnc1-c1ccccc1 (stereo not drawn) | 88 °C (dec.) |  | 
2 | Cc1ncsc1-c1nnc(SCCCNCCCC2CCc3ccc(F)cc32)n1C.Cl (stereo not drawn) | 123 °C |  | 
3 | COc1cc2c(cc1OC)C(NCCCSc1nnc(-c3ccccc3)n1C)CC2.Cl (stereo not drawn) | 201 to 202 °C |  | 
4 | 3-[3-(6-Methyl-1,2,3,4-tetrahydronaphth-2-ylmethylamino)propylmercapto]-4-methyl-5-phenyl-1,2,4(4H)-triazole [Example 14] |  | 46 | pKi (D3) (Cloned human D3-receptor): 7.82
5 | 3-[3-(N-(Indan-2-yl)propylamino)propylmercapto]-4-methyl-5-phenyl-1,2,4(4H)-triazole Fumarate [Example 1] |  | 71 | pKi (D3) (Cloned human D3-receptor): 9.05
6 | COc1ccc2c(c1)CC(CCCNCCCSc1nnc(-c3ccccc3)n1C)CC2 (stereo not drawn) (as salt: HCl) [Example 18, 3-[3-(N-(7-Methoxy-1,2,3,4-tetrahydronaphth-2-yl)propylamino)propylmercapto]-4-methyl-5-phenyl-1,2,4(4H)-triazole] | 92 to 95 °C |  | 
7 | CCOC(=O)c1nnc(SCCCNC2Cc3ccccc3C2)n1C (as salt: HCl) [Example 25, Ethyl-5-{[3-(indan-2-ylamino)propyl]mercapto}-4-methyl-1,2,4(4H)-triazole-3-carboxylate] | 135 to 139 °C |  | 
8 | Cc1ccc2c(c1)CCC(NCCCSc1nnc(-c3ccccc3)n1C)C2 (stereo not drawn) [Example 4, 3-[3-(6-Methyl-1,2,3,4-tetrahydronaphth-2-ylamino)propylmercapto]-4-methyl-5-phenyl-1,2,4(4H)-triazole] | 69 to 73 °C |  | 
9 | CCCN(CCCSc1nnc(-c2scnc2C)n1C)C1CCc2ccc(OC)cc2C1 (stereo not drawn) [Example 26, 3-[3-(N-(7-Methoxy-1,2,3,4-tetrahydronaphth-2-yl)-propylamino)propylmercapto]-4-methyl-5-(4-methyl-1,3-thiazol-5-yl)-1,2,4(4H)-triazole] |  | 157 | Ki (Cloned human D3-receptor; read-out: pKi (D3) (converted)): 8.71e-09 M
